Among the data in PubChem BioAssay (NCI) are GI50 and TGI values, retold here.

Experiment in all cases: inhibition of tumour cell growth, NCI panel, 48 h
Assay [1] has as its system BT-549 breast.
The subject of assay [2] is NCI-H460 lung.
Assay [3] has as its system OVCAR-5 ovarian.
Assay [4] concerns HS 578T breast.
Assay [5] concerns HT29 colon.
Assay [6] has as its system HOP-62 NSCLC.
For assay [7], the system named is U251 CNS.
For assay [8], the system named is SR leukemia.
Assay [9] concerns SF-295 CNS.
Assay [10] relates to HCT-15 colon.

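Protocol summary: plate cells (96-well), add compound at 5 concentrations, incubate 48 h, interpolate endpoints linearly. GI50 marks 50% less growth. TGI is the concentration that stops growth completely.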

As for `CC(=[N-])N1CCC[C@@H](Nc2c3ccccc3nc3ccccc23)C1.[Cl][Pt].[NH-]CCC[NH-]`, the GI50 was 2.9 µM in [1]; 0.0277 µM in assay [2]; 2.89 µM in [3]; 3.33 µM in assay [4]; 0.44 µM in assay [5]; 1.72 µM in assay [6]. Further, the GI50 in assay [7] was 1.58 µM; in assay [8], 0.445 µM; in [9] it was 0.384 µM; in [10] it was 2.37 µM. Further, the TGI was 64.7 µM in assay [1]; above 40.8 µM in assay [2]; 36.4 µM in assay [3]; above 31.4 µM in assay [4]; above 100 µM in assay [5]; above 100 µM in assay [6]. Further, the TGI in [7], in assay [8], in [9] and in assay [10] was above 100 µM each time.
